Values joined by “and” are separate entries in the source; they are usually repeats but may differ in a detail not shown here. Equal entries are not always repeated. One block for each molecule: values may come before it.
Assays:
P. aeruginosa AUMC-Pa-3 = assay: microbe, parasite or virus in culture
Outline: (§1)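 Values are lowest concentrations showing no visible growth after 18 h at 37 °C. Drugs were serially halved in MHB and combined with equal volumes of a roughly 1 × 10^6 CFU/mL suspension, following CLSI guidance, in triplicate.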

P. aeruginosa AUMC-Pa-4 = assay: microbe, parasite or virus in culture
Outline: as §1

P. aeruginosa AUMC-Pa-5 = assay: microbe, parasite or virus in culture; details: strain AUMC-Pa-5
Outline: as §1

P. aeruginosa AUMC-Pa-6 = assay: microbe, parasite or virus in culture
Outline: as §1

P. aeruginosa PAO1 = assay: microbe, parasite or virus in culture; details: PAO1
Outline: as §1

P. aeruginosa ATCC27853 = assay: microbe, parasite or virus in culture; set-up: MICa: MIC of the antibiotic / MICac: MIC of the antibiotic in the combination: unit not given beside the values
Experimental: (§2) The MIC tests were performed in triplicate using broth microdilution in accordance with Clinical and Laboratory Standards Institute (CLSI) recommendations (http://iacld.ir/DL/public/CLSI-2018-M100-S28.pdf). Briefly, drugs were two-fold diluted in MHB and mixed with an equal volume of bacterial suspensions containing approximately 1 × 10^6 CFU/mL in 96-well microliter plate. After 18 h incubation at 37 °C, the MIC values were defined as the lowest concentrations of antibiotics with no visible growth of bacteria. […] Otherwise, 1/4 MIC of the peptide was used in the combination. […] If needed, membrane compounds PG, PE, PC, CL or LPS, or membrane stabilizers MgCl2 or CaCl2, or efflux pumps inhibitor PAβN were added to the broth medium to clarify the effect of other substances on the synergy between peptide and antibiotics. All the tests were performed in triplicate.
(§3) The fractional inhibitory concentration (FIC) indices were calculated using the previously described formula FICI = FICa + FICb = MICac/MICa + MICbc/MICb. The FICI was interpreted according to EUCAST [65] as follows: synergistic, FICI≤0.5; additive, 0.5<FICI≤1; indifferent, 1<FICI<2; antagonistic, FICI ≥2. For the FICI calculations, twice the highest concentration tested was used in the cases where the MIC was not reached.

P. aeruginosa NR-31040 = assay: microbe, parasite or virus in culture; set-up: MICa: MIC of the antibiotic / MICac: MIC of the antibiotic in the combination: unit not given beside the values; details: strain NR-31040, unit not given
Experimental: as §2, §3

P. aeruginosa NR-31041 = assay: microbe, parasite or virus in culture; set-up: MICa: MIC of the antibiotic / MICac: MIC of the antibiotic in the combination: unit not given beside the values
Experimental: as §2, §3

P. aeruginosa PA14 = assay: microbe, parasite or virus in culture; set-up: MICa: MIC of the antibiotic / MICac: MIC of the antibiotic in the combination: unit not given beside the values
Experimental: as §2, §3

P. aeruginosa PAK = assay: microbe, parasite or virus in culture; set-up: MICa: MIC of the antibiotic / MICac: MIC of the antibiotic in the combination: unit not given beside the values
Experimental: as §2, §3

P. aeruginosa HM-214 = details: strain HM-214; antibiotic + D-11 (MICb/MICbc 128/4)
Experimental: as §2, §3

P. aeruginosa AUMC-Pa-1 = details: strain AUMC-Pa-1; antibiotic + D-11 (MICb/MICbc 128/4)
Experimental: as §2, §3

P. aeruginosa AUMC-Pa-2 = details: strain AUMC-Pa-2; antibiotic + D-11 (MICb/MICbc 64/4)
Experimental: as §2, §3

[1] = tested on: clinical P. aeruginosa isolates; assay: microbe, parasite or virus in culture; details: antibiotic alone
Outline: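 MIC is the lowest drug concentration showing no visible growth after 18 h at 37 °C. Two-fold dilutions in MHB were combined with an equal volume of bacterial suspension (about 1 × 10^6 CFU/mL), following CLSI broth microdilution, in triplicate.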

[2] = S3 Table, antibiotic + 4 μM D-11

- MIC (P. aeruginosa AUMC-Pa-3; Pseudomonas aeruginosa, AUMCPA3, 18 h, read-out: MICa: MIC of the antibiotic): 1 µM
- MICac: MIC of the antibiotic in the combination (P. aeruginosa AUMC-Pa-3; strain AUMC-Pa-3, with D-11 at MICbc 4, unit not given): 0.25
- MIC (P. aeruginosa AUMC-Pa-4; Pseudomonas aeruginosa, AUMCPA4, 18 h, read-out: MICa: MIC of the antibiotic): 1 µM
- MICac: MIC of the antibiotic in the combination (P. aeruginosa AUMC-Pa-4; strain AUMC-Pa-4, with D-11 at MICbc 4, unit not given): 0.25
- MICa: MIC of the antibiotic (P. aeruginosa AUMC-Pa-5; antibiotic alone, unit not given): 1
- MICac: MIC of the antibiotic in the combination (P. aeruginosa AUMC-Pa-5; with D-11 at MICbc 4, unit not given): 2
- MIC (P. aeruginosa AUMC-Pa-6; Pseudomonas aeruginosa, AUMCPA6, 18 h, read-out: MICa: MIC of the antibiotic): 0.5 µM
- MICac: MIC of the antibiotic in the combination (P. aeruginosa AUMC-Pa-6; strain AUMC-Pa-6, with D-11 at MICbc 4, unit not given): 0.5/0.5
- MIC (P. aeruginosa PAO1; Pseudomonas aeruginosa, PAO1, 18 h, read-out: MICa: the MIC of antibiotics, S3 Table, antibiotic alone): 1 µM
- MICac: the MIC for the antibiotic in the combination (P. aeruginosa PAO1; S3 Table, with 2 μM D-11): 0.125 µM
- MICac: the MIC for the antibiotic in the combination (P. aeruginosa PAO1; S3 Table, with 4 μM D-11): 0.03125 µM
- MIC (P. aeruginosa ATCC27853; Pseudomonas aeruginosa, ATCC27853, 18 h, read-out: MICa: MIC of the antibiotic): 2 µM
- MICac: MIC of the antibiotic in the combination (P. aeruginosa ATCC27853; strain ATCC27853, with D-11 at MICbc 4, unit not given): 0.25
- MICa: MIC of the antibiotic (P. aeruginosa NR-31040; antibiotic alone): 2
- MICac: MIC of the antibiotic in the combination (P. aeruginosa NR-31040; with D-11 at MICbc 4): 1
- MIC (P. aeruginosa NR-31041; Pseudomonas aeruginosa, NR31041, 18 h, read-out: MICa: MIC of the antibiotic): 2 µM
- MICac: MIC of the antibiotic in the combination (P. aeruginosa NR-31041; strain NR-31041, with D-11 at MICbc 4, unit not given): 0.5
- MIC (P. aeruginosa PA14; Pseudomonas aeruginosa, PA14, 18 h, read-out: MICa: MIC of the antibiotic): 1 µM
- MICac: MIC of the antibiotic in the combination (P. aeruginosa PA14; strain PA14, with D-11 at MICbc 4, unit not given): 0.5
- MIC (P. aeruginosa PAK; Pseudomonas aeruginosa, 18 h, read-out: MICa: MIC of the antibiotic): 2 µM
- MICac: MIC of the antibiotic in the combination (P. aeruginosa PAK; strain PAK, with D-11 at MICbc 4, unit not given): 0.5
Molecule: CC1COc2c(N3CCN(C)CC3)c(F)cc3c(=O)c(C(=O)O)cn1c23 (stereo not drawn) [Ofloxacin]
- FICI (P. aeruginosa AUMC-Pa-3; strain AUMC-Pa-3, antibiotic + D-11 (MICb/MICbc 128/4)): 0.281
- FICI (P. aeruginosa AUMC-Pa-5; antibiotic + D-11 (MICb/MICbc 64/4)): 2.063
- FICI (P. aeruginosa AUMC-Pa-6; strain AUMC-Pa-6, antibiotic + D-11 (MICb/MICbc 64/4)): 1.063
- FICI (P. aeruginosa PAO1; S3 Table, antibiotic + 2 μM D-11): 0.188
- FICI (P. aeruginosa PAO1; [2]): 0.156
- FICI (P. aeruginosa ATCC27853; strain ATCC27853, antibiotic + D-11 (MICb/MICbc 32/4)): 0.250
- FICI (P. aeruginosa NR-31041; strain NR-31041, antibiotic + D-11 (MICb/MICbc 64/4)): 0.313
- FICI (P. aeruginosa PAK; strain PAK, antibiotic + D-11 (MICb/MICbc 64/4)): 0.313
- FICI (P. aeruginosa HM-214): 1.031
- FICI (P. aeruginosa AUMC-Pa-1): 0.094
- FICI (P. aeruginosa AUMC-Pa-2): 0.563

- MICac: the MIC for the antibiotic in the combination (P. aeruginosa PAO1; S3 Table, with 2 μM D-11): 2/2 μM
- MICac: the MIC for the antibiotic in the combination (P. aeruginosa PAO1; S3 Table, with 4 μM D-11): 4 µM
- MICa: the MIC of antibiotics (P. aeruginosa PAO1; S3 Table, antibiotic alone): 2/2 μM and 2 μM
- Antibiotic sensibility (MIC) of clinical P. aeruginosa isolate AUMC-Pa-1 ([1]; strain AUMC-Pa-1): 1 µM
- Antibiotic sensibility (MIC) of clinical P. aeruginosa isolate AUMC-Pa-2 ([1]; strain AUMC-Pa-2): 0.5 µM
- Antibiotic sensibility (MIC) of clinical P. aeruginosa isolate AUMC-Pa-3 ([1]; strain AUMC-Pa-3): 0.0625 µM
- Antibiotic sensibility (MIC) of clinical P. aeruginosa isolate AUMC-Pa-4 ([1]; strain AUMC-Pa-4): 0.5 µM
- Antibiotic sensibility (MIC) of clinical P. aeruginosa isolate AUMC-Pa-5 ([1]; strain AUMC-Pa-5): 0.5 µM
- Antibiotic sensibility (MIC) of clinical P. aeruginosa isolate AUMC-Pa-6 ([1]; strain AUMC-Pa-6): 2 µM
- Antibiotic sensibility (MIC) of clinical P. aeruginosa isolate HM-214 ([1]; strain HM-214): 2 µM
- Antibiotic sensibility (MIC) of clinical P. aeruginosa isolate NR-31040 ([1]; strain NR-31040): 8 µM
- Antibiotic sensibility (MIC) of clinical P. aeruginosa isolate NR-31041 ([1]; strain NR-31041): 4 µM
Molecule: Neomycin
- FICI (P. aeruginosa PAO1; [2]): 2.125

Source: publication PMC8445441, “Elucidating the mechanism by which synthetic helper peptides sensitize Pseudomonas aeruginosa to multiple antibiotics” (PLoS Pathogens, 2021)
